Here are results for 1 molecule from patent US7659104B2, “Solvent tolerant microorganisms and methods of isolation” (E.I. du Pont de Nemours and Company, priority 2006, dated 2010).

The subject of experiment [1] is PN0110 (Enterococcus faecium). Particulars: 37° C. Here is the method: (§1) Pure strains of 1-butanol resistant bacteria were isolated from the enrichment cultures as follows. The cells grown in an enrichment culture containing 1.2% or 1.6% 1-butanol were serially diluted, and the serial dilutions were plated on Luria Bertani (LB) agar medium, modified LB agar (i.e., LB agar supplemented with 0.5% sucrose, 0.5% glucose, 0.5% fructose, 0.5% sodium pyruvate, 2 mM MgCl2, 0.7 mM CaCl2, 50 μM MnCl2, 1 μM FeCl3, 1 μM ZnCl2, 1.72 μM CuCl2, 2.53 μM CoCl2, 2.42 μM Na2MoO4 and 2 μM thiamine hydrochloride) or minimal enrichment medium with 2.0% Difco™ Agar Noble, (BD Diagnostic Systems, Sparks, Md.), all without 1-butanol. Colonies were then inoculated from the agar medium into minimal enrichment medium (described above) without 1-butanol in the wells of a microtiter plate. […] The growth was monitored (by OD600) of isolates cultured in S30L medium (i.e., 10 mM ammonium sulfate, 5 mM potassium phosphate buffer, pH 7.0, 50 mM MOPS, pH 7.0, 2 mM MgCl2, 0.7 mM CaCl2, 50 μM MnCl2, 1 μM FeCl3, 1 μM ZnCl2, 1.72 μM CuCl2, 2.53 μM CoCl2, 2.42 μM Na2MoO4, 2 μM thiamine hydrochloride, 0.01 M glucose, and 0.2% yeast extract) at 37° C. in the absence (control) and in the presence of from 1.2% to 3.0% w/v of 1-butanol and the doubling time for each culture was calculated from the logarithmic part of the growth curve (doubling time=0.693/growth rate).

For experiment [2], the system named is isolates from the enrichments. The conditions noted are these: 37° C., microtiter plate. How it is done: as §1
Experiment [3] concerns isolates listed in Table 5 (PN0048, PN0197-10, PN0133). The experiment can be described thus: Growth on solid medium (S20 agar replica plating), isolates listed in Table 5. Particulars: 37° C., 24 to 72 h. Format: cell-based, Enterococcus. Here is the method: Phylogenetic characterization of the microbial consortium in the anaerobic bioreactor and isolation of pure strains of 1-butanol resistant bacteria from this bioreactor were performed as follows. Samples of cells taken from the bioreactor at various times and from the bioreactor waste jug were serially diluted, and the serial dilutions were plated on S20 agar medium (S20 medium with 1.6% DifCo™ Agar, Noble-Solidifying agent) without 1-butanol. Colonies were then inoculated from the S20 agar medium into 1.2 mL of S20 medium without 1-butanol in the wells of a square-well microtiter plate (Beckman Coulter Inc, Fullerton, Calif.; Catalog No. 069681). […] Butanol tolerance was determined by growth in the presence of 1-butanol as determined by measuring increases in optical density at 595 nm (OD595) on a microtiter plate reader (HTS 7000 Plus Bio Assay Reader, PerkinElmer Life and Analytical Sciences Inc., Wellesley, Mass.). Isolates that had OD595 readings in the range of 0.1 to 0.8 after growth for 48 h at 37° C. with shaking were selected for further tolerance testing. […] The IC50 values of the isolated strains were determined at 37° C., for 1-butanol, 2-butanol, isobutanol, 2-butanone (also called methyl ethyl ketone (MEK)) and ethanol, following the method described in Example 1.

For experiment [4], the system named is enrichment cultures from environmental sludge samples. Particulars: 37° C. Here is the method: Environmental sludge samples were obtained from wastewater treatment facilities at several E.I. du Pont de Nemours and Company sites. Enrichment cultures were established for each sample by inoculating a 125-mL screw cap Erlenmeyer flask with 1 mL of a sludge sample in 10 mL of minimal enrichment medium (i.e., 10 mM ammonium sulfate, 50 mM potassium phosphate buffer, pH 7.0, 2 mM MgCl2, 0.7 mM CaCl2, 50 μM MnCl2, 1 μM FeCl3, 1 μM ZnCl2, 1.72 μM CuCl2, 2.53 μM CoCl2, 2.42 μM Na2MoO4, 2 μM thiamine hydrochloride, 0.5% glucose, 0.5% fructose, 0.5% sucrose and 0.1% yeast extract). The enrichment cultures were incubated at 37° C. with shaking. After 24 h of incubation, the enrichment cultures were diluted 1:10 into fresh medium that contained 0.8%, 1.2% or 1.6% w/v 1-butanol (Sigma Chemical Co.; molecular biology grade (greater than or equal to 99% purity)). Incubation continued under the same conditions. Cultures with the highest level of 1-butanol allowing significant growth (e.g., a culture with an initial OD600 of approximately 0.1 that increased within 24 to 48 h to an OD600 of approximately 1.0) were then diluted 1:10 into fresh medium that contained higher levels of 1-butanol to select for increased tolerance to 1-butanol.

The test system of experiment [5] is most microorganisms described in the art. Particulars: liquid medium; 37° C.; cited from earlier work.
In experiment [6] the test system is Lactococcus lactis overexpressing GroESL. Particulars: Desmond et al.; equals 0.4% w/v; cited from earlier work.
The subject of experiment [7] is Lactobacillus paracasei overexpressing GroESL. Particulars: Desmond et al.; equals 0.4% w/v; cited from earlier work.
Setting [8] is: liquid minimal enrichment medium, shaking.

Turning to `CCCCO` [1-butanol], the “concentration in solid medium on which the strain was able to grow” value in experiment [1] is 2.5 % w/v. In addition, in experiment [2], the “concentration in liquid medium at which several isolates displayed growth” value is “at least 2.0%”. Also, the “concentration on solid medium at which isolates displayed growth” value in experiment [3] was ≥ 2.5%. Besides, in experiment [4] (liquid medium), the “concentration in whose presence none of the enrichment cultures grew” value was determined as 2.0%. Moreover, in experiment [4] (setting [8]), the “concentration in whose presence enrichment cultures from some sites grew” value is listed as 1.6% and the “concentration in whose presence most of the enrichment cultures grew” value was determined as 1.2%. The “concentration at which growth is totally inhibited” value in experiment [5] is listed as “less than 2.0 % w/v”. Also, the “concentration in whose presence strains were able to grow” value in experiment [6] is recorded as 0.5 % volume/volume (v/v). Moreover, the “concentration in whose presence strains were able to grow” value in experiment [7] was 0.5 % volume/volume (v/v).
